Common to all, as to conditions: Table 35
For one assay, the target named is RIP3 (Homo sapiens (Human), UniProt Q9Y572). The assay is described as follows: KINOMEscan binding assay, RIP3. The procedure:
(§1) Kinase assays. For most assays, kinase-tagged T7 phage strains were grown in parallel in 24-well blocks in an E. coli host derived from the BL21 strain. E. coli were grown to log-phase and infected with T7 phage from a frozen stock (multiplicity of infection=0.4) and incubated with shaking at 32° C. until lysis (90-150 minutes).
(§2) The Hill Slope was set to −1.

In another assay the target is RIP1 (Homo sapiens (Human), UniProt Q13546). The assay is described as follows: KINOMEscan binding assay, RIP1.
A further assay deals with MLKL (full length) (Homo sapiens (Human), UniProt Q8NB16). The assay is described as follows: KINOMEscan binding assay, MLKL (full length). On the procedure:
as §1, §2

Our source for the Kd values is patent US20250074891A1 (Anaxis Pharma Pty Ltd., priority 2021, published 2025).

Each structure is given as a SMILES string.

Chain of MLKL (full length) (Q8NB16 whole entry): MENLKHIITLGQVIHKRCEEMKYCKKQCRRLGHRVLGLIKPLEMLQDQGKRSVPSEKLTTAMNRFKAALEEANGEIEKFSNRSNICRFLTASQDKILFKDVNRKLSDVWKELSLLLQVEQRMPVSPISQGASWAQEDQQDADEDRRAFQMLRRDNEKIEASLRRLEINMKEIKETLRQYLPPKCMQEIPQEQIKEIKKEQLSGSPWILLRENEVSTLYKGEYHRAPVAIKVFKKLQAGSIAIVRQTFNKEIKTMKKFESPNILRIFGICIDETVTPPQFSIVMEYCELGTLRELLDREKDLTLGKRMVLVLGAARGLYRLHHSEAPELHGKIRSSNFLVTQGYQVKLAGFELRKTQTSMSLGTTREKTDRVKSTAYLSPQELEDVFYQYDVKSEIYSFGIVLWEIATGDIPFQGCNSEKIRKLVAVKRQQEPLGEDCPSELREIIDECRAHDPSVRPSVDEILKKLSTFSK
Chain of RIP3 (Q9Y572 whole entry): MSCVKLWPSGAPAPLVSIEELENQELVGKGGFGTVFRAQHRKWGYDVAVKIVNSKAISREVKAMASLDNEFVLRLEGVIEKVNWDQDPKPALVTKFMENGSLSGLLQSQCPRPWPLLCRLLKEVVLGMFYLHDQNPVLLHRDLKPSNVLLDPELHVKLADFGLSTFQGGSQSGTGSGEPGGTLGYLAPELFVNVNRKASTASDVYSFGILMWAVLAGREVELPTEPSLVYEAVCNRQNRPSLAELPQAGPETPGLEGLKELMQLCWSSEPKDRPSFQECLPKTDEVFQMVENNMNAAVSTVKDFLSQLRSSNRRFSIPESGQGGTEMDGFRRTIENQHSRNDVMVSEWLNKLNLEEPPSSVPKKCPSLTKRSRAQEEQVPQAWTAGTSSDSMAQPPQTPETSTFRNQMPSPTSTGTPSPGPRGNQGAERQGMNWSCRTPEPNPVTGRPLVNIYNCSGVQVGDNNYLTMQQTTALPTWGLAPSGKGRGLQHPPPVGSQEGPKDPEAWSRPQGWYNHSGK
Chain of RIP1 (Q13546 whole entry): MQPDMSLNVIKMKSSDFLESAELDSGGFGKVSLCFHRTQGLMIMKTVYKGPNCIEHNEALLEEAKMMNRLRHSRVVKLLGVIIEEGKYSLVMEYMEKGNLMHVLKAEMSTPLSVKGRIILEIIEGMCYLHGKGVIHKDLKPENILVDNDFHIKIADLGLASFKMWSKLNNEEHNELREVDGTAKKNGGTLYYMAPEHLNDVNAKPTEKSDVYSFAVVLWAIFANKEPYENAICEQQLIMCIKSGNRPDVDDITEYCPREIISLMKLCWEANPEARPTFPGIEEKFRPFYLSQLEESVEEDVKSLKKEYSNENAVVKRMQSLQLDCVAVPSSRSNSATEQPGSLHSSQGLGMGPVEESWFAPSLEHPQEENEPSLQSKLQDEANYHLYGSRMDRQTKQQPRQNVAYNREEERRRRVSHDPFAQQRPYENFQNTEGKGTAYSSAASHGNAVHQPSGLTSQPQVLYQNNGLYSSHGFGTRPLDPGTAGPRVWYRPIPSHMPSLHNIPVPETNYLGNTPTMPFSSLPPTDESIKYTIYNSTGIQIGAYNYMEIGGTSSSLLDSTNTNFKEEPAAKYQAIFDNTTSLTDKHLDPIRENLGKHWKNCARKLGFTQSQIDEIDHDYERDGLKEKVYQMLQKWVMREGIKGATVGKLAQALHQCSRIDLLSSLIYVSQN

As to `NC(=O)c1c(-c2ccc(NS(=O)(=O)Cc3ccc(Cl)cc3)cc2)n[nH]c1Nc1cnccn1` [Compound 70, 3-(4-(((4-chlorophenyl)methyl)sulfonamido)phenyl)-5-(pyrazin-2-ylamino)-1H-pyrazole-4-carboxamide], the Kd is more than 30 µM on RIP3, more than 30 µM on RIP1 and less than 0.01 µM at MLKL (full length).

Regarding `CCS(=O)(=O)Nc1ccc(-c2n[nH]c(Nc3cnc(C(F)(F)F)cn3)c2C(N)=O)cc1` [Compound 75, 3-(4-ethanesulfonamidophenyl)-5-{[5-(trifluoromethyl)pyrazin-2-yl]amino}-1H-pyrazole-4-carboxamide], the figures for the Kd on RIP3, at RIP1 and on MLKL (full length) were more than 30 µM, more than 30 µM and less than 0.01 µM, respectively.

As to `CCS(=O)(=O)Nc1ccc(-c2n[nH]c(Nc3cc4ccccc4cn3)c2C(N)=O)cc1` [Compound 87, 3-(4-(ethylsulfonamido)phenyl)-5-(isoquinolin-3-ylamino)-1H-pyrazole-4-carboxamide], the results for the Kd on RIP3, on RIP1 and at MLKL (full length) were more than 30 µM, more than 30 µM and less than 0.01 µM, respectively.

Regarding `CCS(=O)(=O)Nc1ccc(-c2n[nH]c(Nc3cnc(OC)cn3)c2C(N)=O)cc1` [Compound 90, 3-(4-(ethylsulfonamido)phenyl)-5-((5-methoxypyrazin-2-yl)amino)-1H-pyrazole-4-carboxamide], the figures for the Kd on RIP3, at RIP1 and at MLKL (full length) were more than 30 µM, more than 30 µM and less than 0.01 µM, respectively.

As for `CCS(=O)(=O)Nc1ccc(-c2n[nH]c(Nc3ccc(C(F)(F)F)cn3)c2C(N)=O)cc1` [Compound 93, 3-(4-(ethylsulfonamido)phenyl)-5-((5-(trifluoromethyl)pyridin-2-yl)amino)-1H-pyrazole-4-carboxamide], the dissociation constant (Kd) is more than 30 µM on RIP3, more than 30 µM at RIP1 and less than 0.01 µM at MLKL (full length).

On to `CCS(=O)(=O)Nc1ccc(-c2n[nH]c(Nc3cncc(OC)n3)c2C(N)=O)cc1` [Compound 99, 3-(4-(ethylsulfonamido)phenyl)-5-((6-methoxypyrazin-2-yl)amino)-1H-pyrazole-4-carboxamide], for which the results for the Kd on RIP3, on RIP1 and at MLKL (full length) were more than 30 µM, more than 30 µM and less than 0.01 µM, respectively.

With `CCS(=O)(=O)Nc1ccc(-c2n[nH]c(Nc3cnn(C)c3)c2C(N)=O)cc1` [Compound 100, 3-(4-(ethylsulfonamido)phenyl)-5-((1-methyl-1H-pyrazol-4-yl)amino)-1H-pyrazole-4-carboxamide], the Kd was more than 30 µM at RIP3, more than 30 µM on RIP1 and less than 0.01 µM on MLKL (full length).

In the case of `CCS(=O)(=O)Nc1ccc(-c2n[nH]c(Nc3cnc(C)cn3)c2C(N)=O)cc1` [Compound 101, 3-(4-(ethylsulfonamido)phenyl)-5-((5-methylpyrazin-2-yl)amino)-1H-pyrazole-4-carboxamide], the figures for the Kd on RIP3, at RIP1 and at MLKL (full length) were more than 30 µM, more than 30 µM and less than 0.01 µM, respectively.

Turning to `CCS(=O)(=O)Nc1ccc(-c2n[nH]c(Nc3ccc(C#N)cc3)c2C(N)=O)cc1` [Compound 102, 5-((4-cyanophenyl)amino)-3-(4-(ethylsulfonamido)phenyl)-1H-pyrazole-4-carboxamide], the Kd at RIP3 is more than 30 µM; on RIP1 it was more than 30 µM; at MLKL (full length), less than 0.01 µM.

With `CCS(=O)(=O)Nc1ccc(-c2n[nH]c(Nc3ccnc(C(F)(F)F)c3)c2C(N)=O)cc1` [Compound 104, 3-(4-(ethylsulfonamido)phenyl)-5-((2-(trifluoromethyl)pyridin-4-yl)amino)-1H-pyrazole-4-carboxamide], the Kd was more than 30 µM on RIP3, more than 30 µM at RIP1 and less than 0.01 µM on MLKL (full length).

For the compound `CCOc1cc(Nc2[nH]nc(-c3ccc(NS(=O)(=O)CC)cc3)c2C(N)=O)ccn1` [Compound 105, 5-((2-ethoxypyridin-4-yl)amino)-3-(4-(ethylsulfonamido)phenyl)-1H-pyrazole-4-carboxamide], the figures for the Kd on RIP3, at RIP1 and at MLKL (full length) were more than 30 µM, more than 30 µM and less than 0.01 µM, respectively.

Regarding `CCS(=O)(=O)Nc1ccc(-c2n[nH]c(Nc3ccnc(OCC(F)F)c3)c2C(N)=O)cc1` [Compound 106, 5-((2-(2,2-difluoroethoxy)pyridin-4-yl)amino)-3-(4-(ethylsulfonamido)phenyl)-1H-pyrazole-4-carboxamide], the Kd was more than 30 µM at RIP3, more than 30 µM on RIP1 and less than 0.01 µM at MLKL (full length).

In the case of `CCS(=O)(=O)Nc1ccc(-c2n[nH]c(Nc3cnccn3)c2C(N)=O)cc1` [Compound 108, 3-(4-(ethylsulfonamido)phenyl)-5-(pyrazin-2-ylamino)-1H-pyrazole-4-carboxamide], the figures for the Kd on RIP3, on RIP1 and on MLKL (full length) were more than 30 µM, more than 30 µM and less than 0.01 µM, respectively.

On to `COCCOc1cc(Nc2[nH]nc(-c3ccc(NS(=O)(=O)CC#N)cc3)c2C(N)=O)ccn1` [Compound 110, 3-(4-((cyanomethyl)sulfonamido)phenyl)-5-((2-(2-methoxyethoxy)pyridin-4-yl)amino)-1H-pyrazole-4-carboxamide], for which the results for the Kd on RIP3, at RIP1 and at MLKL (full length) were more than 30 µM, more than 30 µM and less than 0.01 µM, respectively.

Consider `CCS(=O)(=O)Nc1ccc(-c2n[nH]c(Nc3cc(C)nc(C)c3)c2C(N)=O)cc1` [Compound 112, 5-((2,6-dimethylpyridin-4-yl)amino)-3-(4-(ethylsulfonamido)phenyl)-1H-pyrazole-4-carboxamide], for which the values for the Kd on RIP3, on RIP1 and on MLKL (full length) were more than 30 µM, more than 30 µM and less than 0.01 µM, respectively.

Regarding `CCS(=O)(=O)Nc1ccc(-c2n[nH]c(Nc3ccnc(C)c3)c2C(N)=O)cc1` [Compound 113, 3-(4-(ethylsulfonamido)phenyl)-5-((2-methylpyridin-4-yl)amino)-1H-pyrazole-4-carboxamide], the figures for the Kd on RIP3, at RIP1 and on MLKL (full length) were more than 30 µM, more than 30 µM and less than 0.01 µM, respectively.

Turning to `CCS(=O)(=O)Nc1ccc(-c2n[nH]c(Nc3ccnc(OC)n3)c2C(N)=O)cc1` [Compound 123, 3-(4-(ethylsulfonamido)phenyl)-5-((2-methoxypyrimidin-4-yl)amino)-1H-pyrazole-4-carboxamide], the Kd at RIP3 is more than 30 µM; on RIP1, more than 30 µM; at MLKL (full length) it was less than 0.01 µM.

Consider `CCS(=O)(=O)Nc1ccc(-c2n[nH]c(Nc3ccccc3)c2C(N)=O)cc1` [Compound 124, 3-(4-(ethylsulfonamido)phenyl)-5-(phenylamino)-1H-pyrazole-4-carboxamide], for which the Kd on RIP3 is more than 30 µM; on RIP1 it was more than 30 µM; at MLKL (full length) it was less than 0.01 µM.

As to `CCS(=O)(=O)Nc1ccc(-c2n[nH]c(Nc3cccc(C(F)(F)F)n3)c2C(N)=O)cc1` [Compound 126, 3-(4-(ethylsulfonamido)phenyl)-5-((6-(trifluoromethyl)pyridin-2-yl)amino)-1H-pyrazole-4-carboxamide], the dissociation constant (Kd) at RIP3 was more than 30 µM; on RIP1 it was more than 30 µM; at MLKL (full length), less than 0.01 µM.

With `NC(=O)c1c(-c2ccc(NS(=O)(=O)CC(F)(F)F)cc2)n[nH]c1Nc1cnccn1` [Compound 137, 5-(pyrazin-2-ylamino)-3-(4-((2,2,2-trifluoroethyl)sulfonamido)phenyl)-1H-pyrazole-4-carboxamide], the Kd at RIP3 is more than 30 µM; on RIP1 it was more than 30 µM; on MLKL (full length), less than 0.01 µM.

On to `NC(=O)c1c(-c2ccc(NS(=O)(=O)CC(F)(F)F)cc2OCc2ccc(F)cc2)n[nH]c1Nc1cnccn1` [Compound 139, 3-(2-((4-fluorobenzyl)oxy)-4-((2,2,2-trifluoroethyl)sulfonamido)phenyl)-5-(pyrazin-2-ylamino)-1H-pyrazole-4-carboxamide], for which the figures for the Kd at RIP3, at RIP1 and on MLKL (full length) were more than 30 µM, more than 30 µM and less than 0.01 µM, respectively.

On to `NC(=O)c1c(-c2ccc(NS(=O)(=O)CC(F)(F)F)cc2OCc2ccc(F)cc2)n[nH]c1Nc1cccc(C(F)(F)F)n1` [Compound 140, 3-(2-((4-fluorobenzyl)oxy)-4-((2,2,2-trifluoroethyl)sulfonamido)phenyl)-5-((6-(trifluoromethyl)pyridine-2-yl)amino)-1H-pyrazole-4-carboxamide], for which the Kd at RIP3 is more than 30 µM; on RIP1, more than 30 µM; on MLKL (full length), less than 0.01 µM.

For `COc1cnc(Nc2[nH]nc(-c3ccc(NS(=O)(=O)CC(F)(F)F)c(OCc4ccc(F)cc4)c3)c2C(N)=O)cn1` [Compound 143, 3-(3-((4-fluorobenzyl)oxy)-4-((2,2,2-trifluoroethyl)sulfonamido)phenyl)-5-((5-methoxypyrazin-2-yl)amino)-1H-pyrazole-4-carboxamide], the Kd at RIP3 was more than 30 µM; on RIP1 it was more than 30 µM; on MLKL (full length), less than 0.01 µM.

In the case of `NC(=O)c1c(-c2ccc(NS(=O)(=O)CC(F)(F)F)c(OC3(c4ccc(F)cc4)CC3)c2)n[nH]c1Nc1cnccn1` [Compound 144, 3-(3-(1-(4-fluorophenyl)cyclopropoxy)-4-((2,2,2-trifluoroethyl)sulfonamido)phenyl)-5-(pyrazin-2-ylamino)-1H-pyrazole-4-carboxamide], the figures for the Kd at RIP3, on RIP1 and on MLKL (full length) were more than 30 µM, more than 30 µM and less than 0.01 µM, respectively.

As for `NC(=O)c1c(-c2ccc(NS(=O)(=O)C(F)F)cc2)n[nH]c1Nc1ccc(C(F)(F)F)cn1` [Compound 145, 3-(4-((difluoromethyl)sulfonamido)phenyl)-5-((5-(trifluoromethyl)pyridine-2-yl)amino)-1H-pyrazole-4-carboxamide], the Kd on RIP3 was more than 30 µM; at RIP1, more than 30 µM; at MLKL (full length), less than 0.01 µM.

Take `Cc1cnc(Nc2[nH]nc(-c3ccc(NS(=O)(=O)CC(F)(F)F)c(OCc4ccc(Cl)c(F)c4)c3)c2C(N)=O)cn1` [Compound 146, 3-(3-((4-chloro-3-fluorobenzyl)oxy)-4-((2,2,2-trifluoroethyl)sulfonamido)phenyl)-5-((5-methylpyrazin-2-yl)amino)-1H-pyrazole-4-carboxamide]: the figures for the Kd on RIP3, on RIP1 and on MLKL (full length) were more than 30 µM, more than 30 µM and less than 0.01 µM, respectively.

Broadly, the Kd is a measure of binding affinity in units of concentration. A low value points to higher affinity.
